Results reported in ChEMBL document CHEMBL1151373, “Antitumor agents. 49 tricin, kaempferol-3-O-beta-D-glucopyranoside and (+)-nortrachelogenin, antileukemic principles from Wikstroemia indica” (1981).

How the values were obtained:
Type in all cases: functional
P388 [1] = assay: Cytotoxicity against mouse P388 cells xenografted in BDF1 mouse at 12.5 mg/kg relative to control
P388 [2] = assay: Cytotoxicity against mouse P388 cells xenografted in BDF1 mouse at 6 mg/kg relative to control
[3] = Growth inhibition of mouse EAC cells xenografted in CF1 mouse at 3 mg/kg/day, ip; conditions: Ehrlich, route intraperitoneal
P388 [4] = assay: Cytotoxicity against mouse P388 cells xenografted in CDF1 mouse at 4 mg/kg relative to control
P388 [5] = assay: Cytotoxicity against mouse P388 cells xenografted in BDF1 mouse at 8 mg/kg relative to control
P388 [6] = assay: Cytotoxicity against mouse P388 cells xenografted in BDF1 mouse at 16 mg/kg relative to control
P388 [7] = assay: Cytotoxicity against mouse P388 cells xenografted in CDF1 mouse at 2 mg/kg relative to control
P388 [8] = assay: Cytotoxicity against mouse P388 cells xenografted in CDF1 mouse at 10 mg/kg relative to control
P388 [9] = assay: Cytotoxicity against mouse P388 cells xenografted in CDF1 mouse at 1 mg/kg relative to control
P388 [10] = assay: Cytotoxicity against mouse P388 cells xenografted in CDF1 mouse at 16 mg/kg relative to control
P388 [11] = assay: Cytotoxicity against mouse P388 cells xenografted in BDF1 mouse at 4 mg/kg relative to control

SMILES: COc1cc(-c2cc(=O)c3c(O)cc(O)cc3o2)cc(OC)c1O [TRICIN]
- T/C (P388 [1]): 174%
- T/C (P388 [2]): 133%

SMILES: O=c1c(O[C@@H]2O[C@H](CO)[C@@H](O)[C@H](O)[C@H]2O)c(-c2ccc(O)cc2)oc2cc(O)cc(O)c12 [ASTRAGALIN]
- T/C (P388 [1]): 130%
- T/C (P388 [2]): 122%

SMILES: COc1cc2cc(Oc3ccc4ccc(=O)oc4c3)c(=O)oc2cc1O [DAPHNORETIN]
- inhibition in vivo at 3 mg/kg/day [3]: 97%

SMILES: COc1cc(C[C@@H]2COC(=O)[C@@]2(O)Cc2ccc(O)c(OC)c2)ccc1O [WIKSTROMOL]
- T/C (P388 [4]): 137%
- T/C (P388 [5]): 130%
- T/C (P388 [6]): 130%
- T/C (P388 [7]): 141%
- T/C (P388 [8]): 146%
- T/C (P388 [9]): 130%
- T/C (P388 [10]): 154%
- T/C (P388 [11]): 122%
